Drawing on ChEMBL document CHEMBL5209563, “FFN206 based assay for SLC18A1 using HEK-293 SLC18A1 OE cells” (2022), this text covers EC50 and IC50 for 3 compounds.

A word on the EC50: it is the concentration at which the effect is half-maximal. Read a high EC50 as a need for much substance. The IC50 is the concentration at which inhibition is half-maximal.

Calls of active or inactive are those of the source. The rule behind the calls is not given here. Bounds are passed on as bounds.

This assay concerns the target T1, Chromaffin granule amine transporter (Homo sapiens, UniProt P54219).
T1 sequence (P54219 whole entry): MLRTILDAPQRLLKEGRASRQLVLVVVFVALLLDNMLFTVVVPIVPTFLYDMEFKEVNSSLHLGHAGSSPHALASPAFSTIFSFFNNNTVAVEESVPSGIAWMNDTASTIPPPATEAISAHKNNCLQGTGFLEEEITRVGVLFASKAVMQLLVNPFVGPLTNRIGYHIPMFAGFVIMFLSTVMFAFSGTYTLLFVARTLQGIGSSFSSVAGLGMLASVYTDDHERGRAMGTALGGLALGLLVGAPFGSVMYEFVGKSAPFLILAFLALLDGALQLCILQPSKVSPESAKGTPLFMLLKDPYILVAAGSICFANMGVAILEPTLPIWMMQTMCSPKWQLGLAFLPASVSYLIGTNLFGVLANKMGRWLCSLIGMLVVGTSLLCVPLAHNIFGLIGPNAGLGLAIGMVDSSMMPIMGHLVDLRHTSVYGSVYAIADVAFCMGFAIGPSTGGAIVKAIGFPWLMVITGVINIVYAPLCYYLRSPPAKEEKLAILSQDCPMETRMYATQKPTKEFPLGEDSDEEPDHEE
The experiment in a line: Substrate uptake and inhibition of the chromaffin granule amine transporter (VAT1, VMAT1, SLC18A1) as assessed by uptake of a fluorescent substrate (FFN206) in HEK-293 JumpIN-SLC18A1 cells (PubChem AID: 1794818). Format: functional, cell-based, HEK293.

`CNc1ccc2c(CCN)cc(=O)oc2c1` returned an EC50 of 2 µM. As for `COc1cc2c(cc1OC)C1CC(=O)C(CC(C)C)CN1CC2` (stereo not drawn) [TETRABENAZINE], the IC50 is > 10 µM (inactive). `COC(=O)[C@H]1[C@H]2C[C@@H]3c4[nH]c5cc(OC)ccc5c4CCN3C[C@H]2C[C@@H](OC(=O)c2cc(OC)c(OC)c(OC)c2)[C@@H]1OC` [RESERPINE] came in with an IC50 of 0.05 µM.
